From publication PMC6946680, “Modulation of brain cation-Cl^− cotransport via the SPAK kinase inhibitor ZT-1a” (Nature Communications, 2020)
Values joined by “and” are separate entries in the source; they are usually repeats but may differ in a detail not shown here. Equal entries are not always repeated.

Key:
pKCC3 pThr991/pThr1048 = test: Immunoblot of pKCC3 in ischemic mouse brain membrane fractions; conditions: for KCC3 / Na-K pumb / pThr991 / KCC3 / pThr991 / Na-K pumb / pThr1048 / KCC3 / pThr1048 / Na-K pumb: Fig 8, individual samples
KCC3 pThr1048 = test: Immunoblot of KCC site 2 phosphorylation (KCC3 Thr1048) in HEK-293 cells transfected with FLAG-KCC3; format: cell-based, human; conditions: Fig S4b
[1] = tested on: mouse primary cortical neurons; test: Cell volume measurement (calcein-AM) under hyperosmotic stress, primary cortical neurons
pNKCC1 (pThr203/207/212) = test: Immunoblot of pNKCC1 in ischemic mouse brain membrane fractions; conditions: for NKCC1 / Na-K pumb / pThr203/207/212 / NKCC1: Fig 8, individual samples
[2] = tested on: mouse model of ischemic stroke (tMCAO); test: Neurological deficit score after tMCAO; format: in vivo; conditions: for Neurological score (score): Fig 7c, individual mice #1-#7; for neurological deficit score: ZT-1a 5.0 mg/kg
KCC3 pThr991 = test: Immunoblot of KCC site 1 phosphorylation (KCC3 Thr991) in HEK-293 cells transfected with FLAG-KCC3; format: cell-based, human; conditions: for KCC3 pThr991 / KCC3: Fig S4b
[3] = compared with vehicle-control mice
[4] = post-stroke ZT-1a 5 mg/kg, 24 h reperfusion

Cc1cc(C(C#N)c2ccc(Cl)cc2)c(Cl)cc1NC(=O)c1cc(Cl)ccc1O (stereo not drawn) [ZT-1a, 5-chloro-N-(5-chloro-4-((4-chlorophenyl)(cyano)methyl)-2-methylphenyl)-2-hydroxybenzamide]
KCC3 / Na-K pumb (pKCC3 pThr991/pThr1048; CL hemisphere): 1.336 and 1.197 and 1.267 and 1.158 and 1.265 and 1.361
pThr991 / KCC3 (pKCC3 pThr991/pThr1048; CL hemisphere): 1.218 and 1.115 and 1.236 and 1.366 and 1.064 and 1.128
pThr991 / Na-K pumb (pKCC3 pThr991/pThr1048; CL hemisphere): 1.627 and 1.334 and 1.565 and 1.429 and 1.509 and 1.618
pThr1048 / KCC3 (pKCC3 pThr991/pThr1048; CL hemisphere): 1.138 and 0.971 and 0.993 and 1.217 and 1.116 and 0.937
pThr1048 / Na-K pumb (pKCC3 pThr991/pThr1048; CL hemisphere): 1.52 and 1.162 and 1.258 and 1.37 and 1.22 and 1.531
KCC3 / Na-K pumb (pKCC3 pThr991/pThr1048; IL hemisphere): 1.177 and 1.337 and 1.176 and 1.207 and 1.288 and 1.143
pThr991 / KCC3 (pKCC3 pThr991/pThr1048; IL hemisphere): 0.804 and 0.867 and 0.759 and 0.638 and 0.69 and 0.743
pThr991 / Na-K pumb (pKCC3 pThr991/pThr1048; IL hemisphere): 0.946 and 0.897 and 1.023 and 0.942 and 0.889 and 0.849
pThr1048 / KCC3 (pKCC3 pThr991/pThr1048; IL hemisphere): 0.646 and 0.719 and 0.618 and 0.673 and 0.737 and 0.686
pThr1048 / Na-K pumb (pKCC3 pThr991/pThr1048; IL hemisphere): 0.76 and 0.987 and 0.854 and 0.792 and 0.949 and 0.785
reduction of ischemia-induced elevation of pKCC3 (pKCC3 pThr991/pThr1048; [3]): 30%
ischemia-induced increase of pKCC3 (pKCC3 pThr991/pThr1048; [4]): prevented
KCC3 pThr1048 / KCC3 (KCC3 pThr1048; ZT-1a 0.3 uM): 0.52 and 0.601 and 0.501 and 0.473
KCC3 pThr1048 / KCC3 (KCC3 pThr1048; ZT-1a 3 uM): 0.31 and 0.301 and 0.253 and 0.205
Cell water (relative change) ([1]; Fig 5b trace, Time 1.00403): 1.0915 relative change
Cell water (relative change) ([1]; Fig 5b trace, Time 2.00427): 1.001 relative change
Cell water (relative change) ([1]; Fig 5b trace, Time 3.00425): 0.9646 relative change
Cell water (relative change) ([1]; Fig 5b trace, Time 4.00423): 0.9689 relative change
Cell water (relative change) ([1]; Fig 5b trace, Time 5.0042): 0.9837 relative change
Cell water (relative change) ([1]; Fig 5b trace, Time 6.00445): 0.7025 relative change
Cell water (relative change) ([1]; Fig 5b trace, Time 7.00442): 0.636 relative change
Cell water (relative change) ([1]; Fig 5b trace, Time 8.00435): 0.6336 relative change
Cell water (relative change) ([1]; Fig 5b trace, Time 9.00452): 0.5971 relative change
Cell water (relative change) ([1]; Fig 5b trace, Time 10.0046): 0.5748 relative change
Cell water (relative change) ([1]; Fig 5b trace, Time 11.0045): 0.5229 relative change
Cell water (relative change) ([1]; Fig 5b trace, Time 12.0045): 0.4882 relative change
Cell water (relative change) ([1]; Fig 5b trace, Time 13.0045): 0.4496 relative change
Cell water (relative change) ([1]; Fig 5b trace, Time 14.0045): 0.4313 relative change
Cell water (relative change) ([1]; Fig 5b trace, Time 15.0047): 0.4596 relative change
Cell water (relative change) ([1]; Fig 5b trace, Time 16.0047): 0.433 relative change
Cell water (relative change) ([1]; Fig 5b trace, Time 17.0047): 0.4137 relative change
Cell water (relative change) ([1]; Fig 5b trace, Time 18.0047): 0.4143 relative change
Cell water (relative change) ([1]; Fig 5b trace, Time 19.0049): 0.386 relative change
Cell water (relative change) ([1]; Fig 5b trace, Time 20.0049): 0.3846 relative change
Cell water (relative change) ([1]; Fig 5b trace, Time 21.0048): 0.3598 relative change
Cell water (relative change) ([1]; Fig 5b trace, Time 22.0048): 0.3067 relative change
Cell water (relative change) ([1]; Fig 5b trace, Time 23.005): 0.3082 relative change
Cell water (relative change) ([1]; Fig 5b trace, Time 24.0048): 0.3082 relative change
Cell water (relative change) ([1]; Fig 5b trace, Time 25.005): 0.2995 relative change
Cell water (relative change) ([1]; Fig 5b trace, Time 26.0053): 0.543 relative change
Cell water (relative change) ([1]; Fig 5b trace, Time 27.005): 0.6295 relative change
Cell water (relative change) ([1]; Fig 5b trace, Time 28.005): 0.7317 relative change
Cell water (relative change) ([1]; Fig 5b trace, Time 29.0051): 0.8403 relative change
Cell water (relative change) ([1]; Fig 5b trace, Time 30.005): 0.9491 relative change
Cell water (relative change) ([1]; Fig 5b trace, Time 31.005): 1.001 relative change
Cell water (relative change) ([1]; Fig 5b trace, Time 32.005): 1.095 relative change
Cell water (relative change) ([1]; Fig 5b trace, Time 33.0052): 1.18 relative change
Cell water (relative change) ([1]; Fig 5b trace, Time 34.0052): 1.2174 relative change
Cell water (relative change) ([1]; Fig 5b trace, Time 35.0052): 1.246 relative change
Cell water (relative change) ([1]; Time 1.0036): 0.9411
Cell water (relative change) ([1]; Time 2.0038): 0.9678
Cell water (relative change) ([1]; Time 3.0038): 0.9873
Cell water (relative change) ([1]; Time 4.0037): 1.0365
Cell water (relative change) ([1]; Time 5.0037): 1.0673
Cell water (relative change) ([1]; Time 6.0037): 0.3755
Cell water (relative change) ([1]; Time 7.0039): 0.3590
Cell water (relative change) ([1]; Time 8.0040): 0.3612
Cell water (relative change) ([1]; Time 9.0042): 0.3419
Cell water (relative change) ([1]; Time 10.0039): 0.3164
Cell water (relative change) ([1]; Time 11.0039): 0.3660
Cell water (relative change) ([1]; Time 12.0039): 0.3218
Cell water (relative change) ([1]; Time 13.0041): 0.3220
Cell water (relative change) ([1]; Time 14.0041): 0.3646
Cell water (relative change) ([1]; Time 15.0040): 0.4243
Cell water (relative change) ([1]; Time 16.0040): 0.3424
Cell water (relative change) ([1]; Time 17.0040): 0.4003
Cell water (relative change) ([1]; Time 18.0045): 0.3516
Cell water (relative change) ([1]; Time 19.0042): 0.3431
Cell water (relative change) ([1]; Time 20.0042): 0.3283
Cell water (relative change) ([1]; Time 21.0042): 0.3207
Cell water (relative change) ([1]; Time 22.0041): 0.3314
Cell water (relative change) ([1]; Time 23.0044): 0.2994
Cell water (relative change) ([1]; Time 24.0044): 0.3371
Cell water (relative change) ([1]; Time 25.0043): 0.3486
Cell water (relative change) ([1]; Time 26.0043): 0.4588
Cell water (relative change) ([1]; Time 27.0043): 0.5973
Cell water (relative change) ([1]; Time 28.0045): 0.7262
Cell water (relative change) ([1]; Time 29.0044): 0.8045
Cell water (relative change) ([1]; Time 30.0044): 0.9325
Cell water (relative change) ([1]; Time 31.0046): 1.0105
Cell water (relative change) ([1]; Time 32.0046): 1.1112
Cell water (relative change) ([1]; Time 33.0046): 1.1274
Cell water (relative change) ([1]; Time 34.0045): 1.2089
Cell water (relative change) ([1]; Time 35.0045): 1.2137
regulatory volume increase (RVI) response of primary cortical neurons ([1]; hyperosmotic stress 370 mOsm, ZT-1a 3 μM, BMT 10 μM): no RVI response
cell shrinkage of primary cortical neurons ([1]; hypertonic 370 mOsm/kg H2O, earlier manuscript version quoted in peer-review file): 87%
initial rate of cell shrinkage ([1]; hypertonic stress, earlier manuscript version quoted in peer-review file): 29 ± 9 % vol/min
neurons exhibiting RVI / cells analysed ([1]; hypertonicity-mediated osmotic shrinkage, three cultures): 0/49
NKCC1 / Na-K pumb (pNKCC1 (pThr203/207/212); CL hemisphere): 1.613 and 1.481 and 1.6 and 1.576 and 1.424 and 1.642
pThr203/207/212 / NKCC1 (pNKCC1 (pThr203/207/212); CL hemisphere): 0.451 and 0.437 and 0.265 and 0.378 and 0.429 and 0.303
NKCC1 / Na-K pumb (pNKCC1 (pThr203/207/212); IL hemisphere): 1.43 and 1.528 and 1.481 and 1.417 and 1.587 and 1.394
pThr203/207/212 / NKCC1 (pNKCC1 (pThr203/207/212); IL hemisphere): 0.461 and 0.418 and 0.385 and 0.452 and 0.396 and 0.372
reduction of ischemia-induced elevation of pNKCC1 (pNKCC1 (pThr203/207/212); [3]): 55–65%
ischemia-induced increase of pNKCC1 (pNKCC1 (pThr203/207/212); [4]): prevented
Neurological score (score) ([2]; Day 0): 3 score
Neurological score (score) ([2]; Day 1): 3 score and 2 score (5×) and 1 score
Neurological score (score) ([2]; Day 3): 2 score (6×) and 1 score
Neurological score (score) ([2]; Day 5): 1 score (3×) and 2 score (4×)
Neurological score (score) ([2]; Day 7): 1 score (4×) and 2 score (3×)
neurological deficit score ([2]; day 1 post tMCAO): 2.0 ± 0.2
neurological deficit score ([2]; day 7 post tMCAO): 1.4 ± 0.2
inhibition at 3 µM (KCC3 pThr991; Homo sapiens, HEK293, 3 µM, HEK-293 cells, n = 4, read-out: inhibition of phosphorylation of KCC sites 1/2): 65 to 77%
KCC3 pThr991 / KCC3 (KCC3 pThr991; ZT-1a 0.3 uM): 0.89 and 0.932 and 0.861 and 0.828
KCC3 pThr991 / KCC3 (KCC3 pThr991; ZT-1a 1 uM): 0.63 and 0.651 and 0.702 and 0.601
KCC3 pThr991 / KCC3 (KCC3 pThr991; ZT-1a 3 uM): 0.65 and 0.601 and 0.553 and 0.517
